According to patent US20020002171A1, “Materials and methods for killing nematodes and nematode eggs” (priority 2000, published 2002):

System: Caenorhabditis elegans
Assay: C. elegans L1 nematicidal dose response in 96-well plates, 5 day visual score (Example 2; same procedure for Example 7, Table 3)
Assay type: in vivo
Set-up: key to 5 Day Visual Score V1 / 5 Day Visual Score V2 / 5 Day Visual Score V3 / 5 Day Visual Score V4 / 5 Day Visual Score V6 / 5 Day Visual Score V5 / Initial HTS Run Visual Score / Follow-up HTS Run Visual Score: Dead: only stiff L1s (no movement); Dead (L4): worms are dead, but at a later larval stage; majority of worms are L1 (based on size) worms move when plate is tapped; majority of worms are L2 (based on size); majority of worms are L3 (based on size); majority of worms are L4 (based on size); AD: majority of worms are adult; #AD: 5 adult worms or less; B!: sterile (0-25 progeny); B: low broodsize (25-100 progeny); ˜B: moderate broodsize (100-250 progeny); <: reduced broodsize (250-500 progeny); OK: no effect (˜1000+ progeny)
Settings: 0.3 μM, C. elegans L1, scored day 5
Procedure: Caenorhabditis elegans adults were grown on Nematode Growth Medium (NGM) until they produced eggs, then the adults were removed.
The eggs were allowed to hatch, and the L1 larvae collected. See The Nematode Caenorhabditis elegans (1988) Cold Spring Harbor Laboratory Press. Using a Matrix Programmable Pipette, the L1s were distributed into 96-well tissue culture plates, 20 L1 in 50 μl NGM per well. Antibiotic/Antimyoticwas added to each well, and 1% by weight E. coli strain HB101. The subject anthelmintic compounds were stored at 5 mM in 100% DMSO. 0.7 μl of compounds 1-31 were added to the left-most column of wells to yield a final concentration of 70 μM in 1.4% DMSO, with 1.4% DMSO only as the control. The compounds were then subjected to 5 more 3-fold dilutions from left to right to yield 6 column concentrations of 70 μM, 23.3 μM, 7.8 μM, 2.6 μM, 0.9 μM, and 0.3 μM. Plates were stored in air-tight Rubbermaid plastic boxes at 20° C. The nematodes had cleared all control wells by day 4, and nematode viability was scored by visual examination under a 100× dissecting microsope on day 5. A visual viability scoring system was used as follows:
Column V1 has a compound concentration of 70 μM with sequential 3-fold dilutions reported in columns V2, V3, V4, V5, and V6, respectively, such that the V6 concentration was 0.3 μM.
The nematicidal activity of anthelmintic Compositions 48-168 were determined in accordance with the procedure outlined in Example 2.

| Structure (SMILES) | 5 Day Visual Score V6 |
| --- | --- |
| O=C(NCC1CCC(c2nc(-c3ccccc3)no2)CC1)Nc1ccc(OC(F)(F)F)cc1 (centres unmarked) [AKC 113] | L4/#AD/B |

Same assay, conditions: 2.6 μM, C. elegans L1, scored day 5

| Structure (SMILES) | 5 Day Visual Score V4 |
| --- | --- |
| O=C(NCC1CCC(c2nc(-c3ccccc3)no2)CC1)Nc1ccc(OC(F)(F)F)cc1 (centres unmarked) [AKC 113] | Dead(L2/L |

Same assay, conditions: 7.8 μM, C. elegans L1, scored day 5

| Structure (SMILES) | 5 Day Visual Score V3 |
| --- | --- |
| O=C(NCC1CCC(c2nc(-c3ccccc3)no2)CC1)Nc1ccc(OC(F)(F)F)cc1 (centres unmarked) [AKC 113] | Dead |

Same assay, conditions: 23.3 μM, C. elegans L1, scored day 5

| Structure (SMILES) | 5 Day Visual Score V2 |
| --- | --- |
| O=C(NCC1CCC(c2nc(-c3ccccc3)no2)CC1)Nc1ccc(OC(F)(F)F)cc1 (centres unmarked) [AKC 113] | Dead |

Same assay, conditions: 70 μM, C. elegans L1, scored day 5

| Structure (SMILES) | 5 Day Visual Score V1 |
| --- | --- |
| O=C(NCC1CCC(c2nc(-c3ccccc3)no2)CC1)Nc1ccc(OC(F)(F)F)cc1 (centres unmarked) [AKC 113] | Dead |
